From patent US12545685B2 (Daiichi Sankyo Company, Limited, priority 2011, dated 2026) come the findings set out here.

Each structure is given as a SMILES string.

In test [1] the target is T1, Mdm2/p53 binding (GST-Mdm2 / His-p53) (Homo sapiens, UniProt Q00987, L33E).
T1 construct: Mdm2 partial protein having Mdm2 amino acids at positions 25 to 108
The test can be described thus: Mdm2/p53 binding assay (HTRF, His-p53 and GST-Mdm2). As to conditions: His-p53 (aa 1-132) and GST-Mdm2 (aa 25-108, L33E) 6.25 nM each; 25°C, 1 hour; values given as ranges. The method, boiled down: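 His-p53 (aa 1–132) and GST-Mdm2 (aa 25–108, L33E) were prepared at 6.25 nM each in the protein dilution (20 mM HEPES pH 7.4, 150 mM NaCl, 0.1% BSA). Compound in 10% DMSO buffer and XL665 anti-His/Eu anti-GST antibodies (KF buffer) were added, with 1 h at 25 °C. The 665/620 nm TR-FRET ratio gave T/C and a sigmoid-fitted IC50.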

For test [2], the system named is human lung cancer-derived cell line NCI-H460 having wild-type p53. The test can be described thus: Cell growth inhibition assay (MTT). It is filed as cell-based. Conditions: 72 h, NCI-H460 cells, 3 days culture, values given as ranges, read-out: 50% growth inhibition concentration (GI50 value). A digest of the protocol:
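NCI-H460 cells (wild-type p53) seeded at 500 cells/well in RPMI1640 with 10% FBS, then treated the next day and grown 3 days at 37 °C. MTT read-out at OD 540 nm (660 nm reference), taken at dosing and at day 3. GI50 derived from T/C (%) dose-response curves.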

T1 sequence (Q00987 25-108 L33E): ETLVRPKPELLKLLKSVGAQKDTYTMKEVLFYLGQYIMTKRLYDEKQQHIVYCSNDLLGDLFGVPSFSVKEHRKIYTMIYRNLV

`CNC(=O)[C@@H]1CC[C@@H](NC(=O)[C@@H]2NC3(CCC(C)(C)CC3)[C@@]3(C(=O)Nc4cc(Cl)ccc43)[C@H]2c2ccnc(Cl)c2F)CO1` [Example 99, (3′R, 4′S,5′R)-6″-chloro-4′-(2-chloro-3-fluoropyridin-4-yl)-N-[(3R,6S)-6-(methylcarbamoyl)tetrahydro-2H-pyran-3-yl]-4,4-dimethyl-2″-oxo-1″,2″-dihydrodispiro[cyclohexane-1,2′-pyrrolidine-3′,3″-indole]-5′-carboxamide]: the IC50 in test [1] is 1 to 50 nM. Besides, the GI50 in test [2] is less than 100 nM.

With `CN(C)C(=O)[C@@H]1CC[C@@H](NC(=O)[C@@H]2NC3(CCC(C)(C)CC3)[C@@]3(C(=O)Nc4cc(Cl)ccc43)[C@H]2c2ccnc(Cl)c2F)CO1` [Example 100, (3′R, 4′S,5′R)-6″-chloro-4′-(2-chloro-3-fluoropyridin-4-yl)-N-[(3R,6S)-6-(dimethylcarbamoyl)tetrahydro-2H-pyran-3-yl]-4,4-dimethyl-2″-oxo-1″,2″-dihydrodispiro[cyclohexane-1,2′-pyrrolidine-3′,3′″-indole]-5′-carboxamide], the IC50 in test [1] was 1 to 50 nM. Further, the GI50 in test [2] was less than 100 nM.

In test [1], `CC1(C)CCC2(CC1)N[C@@H](C(=O)N[C@@H]1CC[C@@H](C(=O)N3CC(O)C3)OC1)[C@H](c1ccnc(Cl)c1F)[C@]21C(=O)Nc2cc(Cl)ccc21` [Example 107, (3′R, 4′S,5′R)-6″-chloro-4′-(2-chloro-3-fluoropyridin-4-yl)-N-{(3R,6S)-6-[(3-hydroxyazetidin-1-yl)carbonyl]tetrahydro-2H-pyran-3-yl}-4,4-dimethyl-2″-oxo-1″,2″-dihydrodispiro[cyclohexane-1,2′-pyrrolidine-3′,3″-indole]-5′-carboxamide] yielded an IC50 of 1 to 50 nM. Also, the GI50 in test [2] lay within 100 to 500 nM.

In test [1], `CC1(C)CCC2(CC1)N[C@@H](C(=O)N[C@@H]1CC[C@@H](C(=O)NC3CCOCC3)OC1)[C@H](c1ccnc(Cl)c1F)[C@]21C(=O)Nc2cc(Cl)ccc21` [Example 109, (3′R, 4′S,5′R)-6″-chloro-4′-(2-chloro-3-fluoropyridin-4-yl)-4,4-dimethyl-2″-Oxo-N-[(3R,6S)-6-(tetrahydro-2H-pyran-4-ylcarbamoyl)tetrahydro-2H-pyran-3-yl]-1″,2″-dihydrodispiro[cyclohexane-1,2′-pyrrolidine-3′,3″-indole]-5′-carboxamide] yielded an IC50 of 1 to 50 nM. In addition, the GI50 in test [2] fell in the range of 100 to 500 nM.

With `CC1(C)CCC2(CC1)N[C@@H](C(=O)N[C@@H]1CC[C@@H](C(=O)N3CCOCC3)OC1)[C@H](c1ccnc(Cl)c1F)[C@]21C(=O)Nc2cc(Cl)ccc21` [Example 110, (3′R, 4′S,5′R)-6″-chloro-4′-(2-chloro-3-fluoropyridin-4-yl)-4,4-dimethyl-N-[(3R,6S)-6-(morpholin-4-ylcarbonyl)tetrahydro-2H-pyran-3-yl]-2″-oxo-1″,2″-dihydrodispiro[cyclohexane-1,2′-pyrrolidine-3′,3″-indole]-5′-carboxamide], the IC50 in test [1] was 1 to 50 nM. Moreover, in test [2], the GI50 is less than 100 nM.

On to `CC1(C)CCC2(CC1)N[C@@H](C(=O)N[C@@H]1CC[C@@H](CC(N)=O)OC1)[C@H](c1ccnc(Cl)c1F)[C@]21C(=O)Nc2cc(Cl)ccc21` [Example 111, (3′R, 4′S,5′R)—N-[(3R,6S)-6-(2-amino-2-oxoethyl)tetrahydro-2H-pyran-3-yl]-6″-chloro-4′-(2-chloro-3-fluoropyridin-4-yl)-4,4-dimethyl-2″-oxo-1″,20-dihydrodispiro[cyclohexane-1,2′-pyrrolidine-3′,3″-indole]-5′-carboxamide], for which, in test [1], the IC50 was 1 to 50 nM. Besides, the GI50 in test [2] is 100 to 500 nM.

In test [1], `CC1(C)CCC2(CC1)N[C@@H](C(=O)N[C@H]1C[C@H](c3nnco3)C1)[C@H](c1ccnc(Cl)c1F)[C@]21C(=O)Nc2cc(Cl)ccc21` [Example 112, (3′R, 4′S, S′R)-6″-chloro-4′-(2-chloro-3-fluoropyridin-4-yl)-4,4-dimethyl-N-[trans-3-(1,3,4-oxadiazol-2-yl)cyclobutyl]-2″-oxo-1″,2″-dihydrodispiro[cyclohexane-1,2′-pyrrolidine-3′,3″-indole]-5-carboxamide] gave an IC50 of 50 to 100 nM. Moreover, in test [2], the GI50 was 100 to 500 nM.

`CN(C)C(=O)[C@H]1CC[C@H](NC(=O)[C@@H]2NC3(CCC(C)(C)CC3)[C@@]3(C(=O)Nc4cc(Cl)ccc43)[C@H]2c2ccnc(Cl)c2F)CC1` [Example 113, (3′R, 4′S,5′R)-6″-chloro-4′-(2-chloro-3-fluoropyridin-4-yl)-N-[trans-4-(dimethylcarbamoyl)cyclohexyl]-4,4-dimethyl-2″-oxo-1″,2″-dihydrodispiro[cyclohexane-1,2′-pyrrolidine-3′,3″-indole]-5′-carboxamide]: the IC50 in test [1] lay within 1 to 50 nM. Besides, the GI50 in test [2] was less than 100 nM.

Turning to `CC1(C)CCC2(CC1)N[C@@H](C(=O)N[C@H]1C[C@H](C(N)=O)C1)[C@H](c1ccnc(Cl)c1F)[C@]21C(=O)Nc2cc(Cl)ccc21` [Example 114, (3′R, 4′S,5′R)—N-(trans-3-carbamoylcyclobutyl)-6″-chloro-4′-(2-chloro-3-fluoropyridin-4-yl)-4,4-dimethyl-2″-oxo-1″,2″-dihydrodispiro[cyclohexane-1,2′-pyrrolidine-3′,3″-indole]-5′-carboxamide], in test [1], the IC50 lay in the range of 1 to 50 nM. Besides, the GI50 in test [2] lay in the range of 500 to 1000 nM.

As for `CN(C)C(=O)[C@H]1C[C@H](NC(=O)[C@@H]2NC3(CCC(C)(C)CC3)[C@@]3(C(=O)Nc4cc(Cl)ccc43)[C@H]2c2ccnc(Cl)c2F)C1` [Example 115, (3′R, 4′S,5′R)-6″-chloro-4′-(2-chloro-3-fluoropyridin-4-yl)-N-[trans-3-(dimethylcarbamoyl)cyclobutyl]-4,4-dimethyl-2″-oxo-1″,2″-dihydrodispiro[cyclohexane-1,2′-pyrrolidine-3′,3″-indole]-5′-carboxamide], the IC50 in test [1] is 1 to 50 nM. For the same compound, in test [2], the GI50 was in the range of 100 to 500 nM.

For the compound `CCN(CC)C(=O)[C@@H]1CC[C@@H](NC(=O)[C@@H]2NC3(CCC(C)(C)CC3)[C@@]3(C(=O)Nc4cc(Cl)ccc43)[C@H]2c2ccnc(Cl)c2F)CO1` [Example 116, (3′R, 4′S,5′R)-6″-chloro-4′-(2-chloro-3-fluoropyridin-4-yl)-N-[(3R,6S)-6-(diethylcarbamoyl)tetrahydro-2H-pyran-3-yl]-4,4-dimethyl-2″-oxo-1″,2″-dihydrodispiro[cyclohexane-1,2′-pyrrolidine-3′,3″-indole]-5′-carboxamide], the IC50 in test [1] lay within 1 to 50 nM. Further, the GI50 in test [2] was less than 100 nM.

`CCN(CC)C(=O)[C@@H]1CC[C@@H](NC(=O)[C@@H]2NC3(CCC(C)(C)CC3)[C@@]3(C(=O)Nc4nc(Cl)ccc43)[C@H]2c2ccnc(Cl)c2F)CO1` [Example 117, (3′R, 4′S,5′R)-6″-chloro-4′-(2-chloro-3-fluoropyridin-4-yl)-N-[(3R,6S)-6-(diethylcarbamoyl)tetrahydro-2H-pyran-3-yl]-4,4-dimethyl-2″-oxo-1″,2″-dihydrodispiro[cyclohexane-1,2′-pyrrolidine-3′,3″-pyrrolo[2,3-b]pyridine]-5′-carboxamide] had a 50% inhibitory concentration (IC50) in test [1] of 1 to 50 nM. Further, the GI50 in test [2] lay in the range of 100 to 500 nM.
